Experimental data reported in ChEMBL document CHEMBL3046289, “Synthesis and in vitro antimicrobial activity of some newer quinazolinonesulfonamide linked hybrid heterocyclic entities derived from glycine” (2013).
Values after ≈ are worked out from the molar mass of the structure shown.

Key:
Format in all cases: functional
[1] = system: Bacillus cereus; test: Antibacterial activity against Bacillus cereus MTCC 1305 assessed as growth inhibition after 24 hr by broth microdilution method; settings: MTCC 1305, 24 h
[2] = system: Pseudomonas aeruginosa; test: Antibacterial activity against Pseudomonas aeruginosa MTCC 1688 assessed as growth inhibition after 24 hr by broth microdilution method; settings: MTCC 1688, 24 h
[3] = system: Candida albicans; test: Antifungal activity against Candida albicans MTCC 227 assessed as growth inhibition after 48 hr by broth microdilution method; settings: MTCC 227, 48 h
[4] = system: Staphylococcus aureus; test: Antibacterial activity against Staphylococcus aureus MTCC 2940 assessed as growth inhibition after 24 hr by broth microdilution method; settings: MTCC 2940, 24 h
[5] = system: Escherichia coli; test: Antibacterial activity against Escherichia coli MTCC 443 assessed as growth inhibition after 24 hr by broth microdilution method; settings: MTCC 443, 24 h
[6] = system: Klebsiella pneumoniae; test: Antibacterial activity against Klebsiella pneumoniae MTCC 139 assessed as growth inhibition after 24 hr by broth microdilution method; settings: MTCC 139, 24 h
[7] = system: Aspergillus niger; test: Antifungal activity against Aspergillus niger MTCC 282 assessed as growth inhibition after 48 hr by broth microdilution method; settings: MTCC 282, 48 h

Compound	MIC [1] [µg/mL]	MIC [2] [µg/mL]	MIC [3] [µg/mL]	MIC [4] [µg/mL]	MIC [5] [µg/mL]	MIC [6] [µg/mL]	MIC [7] [µg/mL]
Nc1ccc(S(=O)(=O)NCc2nc3ccccc3c(=O)n2-c2ccccc2)cc1	95 (≈ 234 µM)	85 (≈ 209 µM)	100 (≈ 246 µM)	85 (≈ 209 µM)	80 (≈ 197 µM)	95 (≈ 234 µM)	90 (≈ 221 µM)
CC(=O)Nc1ccc(S(=O)(=O)NCc2nc3ccccc3c(=O)n2-c2ccccc2)cc1	115 (≈ 256 µM)	125 (≈ 279 µM)	105 (≈ 234 µM)	95 (≈ 212 µM)	110 (≈ 245 µM)	130 (≈ 290 µM)	95 (≈ 212 µM)
Cc1ccccc1-n1c(C)nc2ccccc2c1=O [METHAQUALONE]	140 (≈ 559 µM)	100 (≈ 400 µM)	125 (≈ 499 µM)	125 (≈ 499 µM)	75 (≈ 300 µM)	115 (≈ 459 µM)	90 (≈ 360 µM)
Nc1ccc(S(N)(=O)=O)cc1 [SULFANILAMIDE]	55 (≈ 319 µM)	65 (≈ 377 µM)	60 (≈ 348 µM)	50 (≈ 290 µM)	55 (≈ 319 µM)	80 (≈ 465 µM)	50 (≈ 290 µM)
